SMILES strings stand for the structures. Where “and” joins values, the source holds several entries; their conditions need not be identical. Identical values can stand only once.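 Cultured in 96-well plates, cells were exposed to test compound for 48 hours across five concentrations. At the GI50, growth is halved.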 Calls of active or inactive are those of the source. Cut-off read from the data, not from the text of the source: active = GI50 up to about 1.1 µM and inactive = higher.

Among the test systems are HCT-15; IGROV-1; SN12C; DU-145; SNB-75; SF-539; HT-29; TK-10; UACC-62; MDA-N; SR; HL-60; UACC-257; KM12; SW-620; NCI-H23; HOP-92; PC-3; A549; SK-OV-3.
Assay in all cases: growth of human tumour cells (NCI), 48 h

In the case of `Cc1cc(=O)[nH]c2cc(NC(=O)C(C)NC(=O)C(C)NC(=O)C(C)NC(=O)OC(C)(C)C)ccc12` (stereo unspecified), the GI50 in the test with HCT-15 was over 15 µM; in the test on IGROV-1 it was > 15 µM (inactive); with SN12C, > 15 µM (inactive); with DU-145, > 15 µM (inactive); in the test with SNB-75 it was > 15 µM (inactive); with SF-539 it was > 15 µM (inactive). Besides, the GI50 in the test with HT-29, with TK-10, with UACC-62, in the test on MDA-N, in the test with SR and in the test with HL-60 was > 15 µM (inactive) each time. Further, the GI50 in the test with UACC-257, with KM12, with SW-620, with NCI-H23, in the test on HOP-92 and with PC-3 was > 15 µM (inactive) in each case. In the test on A549, the GI50 is > 15 µM (inactive).
In the case of `O=c1cc(O)c2c(O)cc(O)cc2o1`, the GI50 in the test with HCT-15 is over 100 µM; with IGROV-1 it was > 100 µM (inactive); in the test with SN12C, > 100 µM (inactive); in the test with DU-145, > 100 µM (inactive); with SNB-75, > 100 µM (inactive); with SF-539, > 100 µM (inactive). Further, the GI50 with HT-29, with TK-10, in the test with UACC-62, in the test with MDA-N, in the test on SR and with HL-60 was > 100 µM (inactive) in each case. For the same compound, the GI50 with UACC-257, in the test with SW-620, in the test on NCI-H23, in the test with HOP-92, in the test with PC-3 and in the test on A549 was > 100 µM (inactive) throughout.
With `COc1cc2c3cc1Oc1cc(ccc1O)C[C@@H]1c4c(cc(OC)c(O)c4Oc4ccc(cc4)C[C@@H]3N(C)CC2)CC[N+]1(C)C`, the GI50 was 70.1 µM in the test on HCT-15; > 100 µM (inactive) in the test on IGROV-1; > 100 µM (inactive) in the test on SN12C; 42 µM (inactive) with DU-145; 15.1 µM (inactive) in the test with SF-539; 46.5 µM (inactive) in the test with HT-29. Also, the GI50 is > 100 µM (inactive) in the test with TK-10; > 100 µM (inactive) in the test with UACC-62; > 100 µM (inactive) in the test with MDA-N; 24.8 µM (inactive) in the test with SR; > 100 µM (inactive) with HL-60; 56 µM (inactive) with UACC-257. The GI50 in the test on KM12 was 27.1 µM (inactive); in the test on SW-620, 27.2 µM (inactive); with NCI-H23 it was 52 µM (inactive); with HOP-92 it was 11.6 µM (inactive); in the test on PC-3, 21.9 µM (inactive); in the test with A549 it was > 100 µM (inactive).
`Cc1cn(C2CC(OP(=O)(O)OCC3OC(n4c[n+]([BH2-]C#N)c5c(=O)[nH]c(N)nc54)CC3O)C(CO)O2)c(=O)[nH]c1=O` (stereo unspecified): the GI50 in the test with HCT-15 is over 100 µM; with IGROV-1, > 100 µM (inactive); with SN12C, > 100 µM (inactive); with DU-145, > 100 µM (inactive); in the test with SNB-75, > 100 µM (inactive); with SF-539, > 100 µM (inactive). Besides, the GI50 with HT-29, with UACC-62, in the test with MDA-N, in the test with SR, in the test on HL-60 and with UACC-257 was > 100 µM (inactive) throughout. Also, the GI50 with KM12, with NCI-H23, with HOP-92, in the test on PC-3 and in the test with A549 was > 100 µM (inactive) in each case.
For the compound `CC1NC(=O)C2Cc3ccc(O)c(c3)Oc3ccc(cc3)C(O)C(C(=O)N2C)N(C)C(=O)C(C)NC(=O)C(Cc2ccc(O)cc2)N(C)C(=O)C(C)NC1=O` (stereo unspecified), the GI50 in the test with HCT-15 is over 100 µM; with IGROV-1 it was 4.85 µM (inactive); in the test on SN12C, > 10 µM (inactive); in the test on DU-145 it was 32.4 µM (inactive); in the test on SNB-75, 3.67 µM (inactive); in the test on SF-539, 6.71 µM (inactive). Moreover, the GI50 in the test on HT-29 was 19.2 µM (inactive); with TK-10, > 100 µM (inactive); in the test with UACC-62 it was 19.5 µM (inactive); in the test with MDA-N, 13.1 µM (inactive); with SR it was 10.7 µM (inactive); in the test on HL-60 it was 13.9 µM (inactive). Further, the GI50 in the test with UACC-257 was 13.6 µM (inactive); in the test with KM12 it was 9.68 µM (inactive); with SW-620, 23.4 µM (inactive); with NCI-H23, 29.2 µM (inactive); with HOP-92, 15.8 µM (inactive); in the test on PC-3, 23.8 µM (inactive). Further, the GI50 in the test with A549 was 41 µM (inactive).
Consider `CC(=O)OC1COC(n2c(N)c(C#N)c(-c3ccccc3)c(C#N)c2=S)C(OC(C)=O)C1OC(C)=O` (stereo unspecified), for which the GI50 was 52.6 µM and 72.6 µM in the test with HCT-15; > 100 µM (inactive) and 68.5 µM (inactive) with IGROV-1; 38.3 µM (inactive) and 45 µM (inactive) in the test on SK-OV-3; 48.1 µM (inactive) and 36.7 µM (inactive) with SN12C; 47.9 µM (inactive) and 38.4 µM (inactive) with DU-145; 43.4 µM (inactive) and 24.4 µM (inactive) in the test on SNB-75. The GI50 in the test on SF-539 was 40.2 µM (inactive) and 32.4 µM (inactive); with HT-29, 35.9 µM (inactive) and 43.1 µM (inactive); in the test with TK-10 it was 30.2 µM (inactive); in the test on UACC-62, 33 µM (inactive) and 35.1 µM (inactive); in the test on MDA-N it was 26.6 µM (inactive) and 27.8 µM (inactive); in the test on SR, 19.6 µM (inactive) and 22.2 µM (inactive). Also, the GI50 with HL-60 was 23.2 µM (inactive); in the test with UACC-257, 57.7 µM (inactive) and 80.9 µM (inactive); in the test on KM12 it was 67 µM (inactive) and 40.7 µM (inactive); in the test with SW-620 it was 56.2 µM (inactive) and 64.3 µM (inactive); in the test with HOP-92, 19.8 µM (inactive) and 14.8 µM (inactive); with PC-3 it was 43.9 µM (inactive) and 40.1 µM (inactive). In addition, in the test with A549, the GI50 is 71 µM (inactive) and 85.9 µM (inactive).
For the compound `COc1cc([C@@H]2c3cc4c(cc3[C@@H](Nc3ccc([N+](=O)[O-])cc3C(=O)c3ccccc3)[C@H]3COC(=O)[C@H]23)OCO4)cc(OC)c1OC`, the GI50 with HCT-15 is 0.269 µM; with IGROV-1, 0.5 µM (active); in the test with SK-OV-3, 0.46 µM (active); in the test with SN12C, 0.416 µM (active); with DU-145 it was 0.434 µM (active); in the test on SNB-75, > 100 µM (inactive). The GI50 is 0.201 µM (active) in the test with SF-539; 0.32 µM (active) with HT-29; > 100 µM (inactive) with TK-10; 0.164 µM (active) with UACC-62; 0.0687 µM (active) with MDA-N; 0.177 µM (active) in the test on SR. The GI50 with HL-60 was 0.211 µM (active); in the test with KM12, 0.266 µM (active); with SW-620, 0.233 µM (active); in the test on NCI-H23, 0.428 µM (active); with HOP-92, 8.05 µM (inactive); in the test with PC-3, 0.344 µM (active). The GI50 in the test with A549 was 0.446 µM (active).
`CCOC(=O)CC(=O)Nc1cccc2nc[nH]c12`: the GI50 was over 100 µM in the test with HCT-15; > 100 µM (inactive) with IGROV-1; > 100 µM (inactive) with SK-OV-3; > 100 µM (inactive) with SN12C; > 100 µM (inactive) in the test with DU-145; 0.294 µM (active) with SNB-75. Besides, the GI50 with SF-539, in the test with HT-29, in the test with UACC-62, in the test with MDA-N, in the test with SR and in the test with HL-60 was > 100 µM (inactive) each time. Besides, the GI50 in the test with UACC-257 was > 100 µM (inactive); with KM12 it was 51.8 µM (inactive); with SW-620, > 100 µM (inactive); in the test on NCI-H23, > 100 µM (inactive); in the test on HOP-92, > 100 µM (inactive); in the test on PC-3, > 100 µM (inactive). Moreover, the GI50 with A549 is > 100 µM (inactive).
In the case of `CN1CC[N+](C)=C1c1ccccc1`, the GI50 in the test with HCT-15 is over 100 µM; in the test with IGROV-1, > 100 µM (inactive); in the test with SK-OV-3 it was > 100 µM (inactive); in the test with SN12C it was > 100 µM (inactive); in the test on DU-145, > 100 µM (inactive); in the test with SNB-75, > 100 µM (inactive). Further, the GI50 with SF-539, in the test on HT-29, in the test with TK-10, in the test on MDA-N, in the test with SR and with HL-60 was > 100 µM (inactive) in each case. For the same compound, the GI50 with UACC-257, in the test with KM12, with SW-620, in the test on NCI-H23, in the test on HOP-92 and in the test with PC-3 was > 100 µM (inactive) each time. The GI50 with A549 was > 100 µM (inactive).
`CCC1=NC(N/N=C/c2ccccc2O)=N/C1=C\c1ccccc1O`: the GI50 is 2.07 µM in the test with HCT-15; 11.5 µM (inactive) in the test on IGROV-1; 12.4 µM (inactive) in the test with SK-OV-3; 21.3 µM (inactive) in the test with SN12C; 18.2 µM (inactive) in the test on DU-145; 17.5 µM (inactive) in the test with SNB-75. Moreover, the GI50 in the test on HT-29 was 4.81 µM (inactive); in the test on TK-10 it was 11.2 µM (inactive); in the test on UACC-62 it was 9.79 µM (inactive); in the test on MDA-N it was 17 µM (inactive); in the test on SR, 27.9 µM (inactive); in the test with HL-60 it was 4.53 µM (inactive). The GI50 with UACC-257 was 14.8 µM (inactive); in the test on KM12, 17 µM (inactive); with SW-620, 7.5 µM (inactive); in the test on NCI-H23 it was 14.4 µM (inactive); in the test with HOP-92 it was 21.1 µM (inactive); in the test on PC-3 it was 15.5 µM (inactive). Further, in the test with A549, the GI50 is 12.9 µM (inactive).
